# Assay results: patent US11629171B2, “Beta-hairpin peptidomimetics” (POLYPHOR AG, priority 2017, dated 2023)
# Where a SMILES comes first, the peptide text is derived from it. Bridges are numbered along the chain shown (N, C = ends). Roman numbers before positions name the chains, in order. [ ]: non-standard residue; d: D form. Thr(ol) = C[C@@H](O)[C@H](N)CO; Tle = CC(C)(C)[C@H](N)C(=O)O; Hiv = CC(C)[C@H](O)C(=O)O; dDab = NCC[C@@H](N)C(=O)O; hSer = N[C@@H](CCO)C(=O)O; Dab = NCC[C@H](N)C(=O)O; Abu = CC[C@H](N)C(=O)O; Dap = NC[C@H](N)C(=O)O
# What was measured:
# Assay type in all cases: cell-based
# [1] = system: Acinetobacter baumannii 872842; conditions: 872842
# Outline: (§1)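 CLSI broth microdilution in cation-adjusted Mueller-Hinton II broth with 0.002% polysorbate 80 (final), inoculum appr. 10^6 CFU/mL, peptides in serial two-fold dilutions. MIC (μg/mL) is the lowest concentration without visible growth after 18-20 h at 35° C.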
# [2] = system: Acinetobacter baumannii DSM 30008; conditions: DSM 30008
# Outline: as §1
# [3] = system: Enterobacter cloacae 848840; conditions: 848840
# Outline: as §1
# Escherichia coli 926415 = conditions: 926415
# Outline: as §1
# [4] = system: Escherichia coli ATCC 25922; conditions: ATCC 25922
# Outline: as §1
# [5] = system: Klebsiella pneumoniae 968733; conditions: 968733
# Outline: as §1
# [6] = system: Klebsiella pneumoniae SSI #3010; conditions: SSI #3010
# Outline: as §1
# [7] = system: Pseudomonas aeruginosa ATCC 27853; conditions: ATCC 27853
# Outline: as §1
# [8] = system: human red blood cells (hRBC); test: Hemolysis; conditions: red cells of human, 1 h, 200
# Outline: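 Percent lysis of human red cells was derived from OD540 of the supernatant, referenced to 2% Triton X-100, after a 1 h, 37° C incubation of 20% (v/v) cells with 200 μg/mL peptide.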
Structure (SMILES),MIC [1],MIC [2],MIC [3],MIC (Escherichia coli 926415),MIC [4],MIC [5],MIC [6],MIC [7],Acinetobacter baumannii DSM 30008 MIC [2],Escherichia coli ATCC 25922 MIC [4],Klebsiella pneumoniae SSI #3010 MIC [6],Pseudomonas aeruginosa ATCC 27853 MIC [7],Hemolysis at 200 μg/mL [8]
CC(C)C[C@@H]1NC(=O)[C@@H](CC(C)C)NC(=O)[C@H](CCN)NC(=O)[C@@H](NC(=O)[C@H](CN)NC(=O)[C@@H](NC(=O)[C@H](CCN)NC(=O)CC[C@H]2NC(=O)[C@@H](CCN)NC(=O)CNC(=O)[C@@H](NC(=O)[C@H](Cc3ccc(O)cc3)NC(=O)[C@@H](NC(=O)[C@@H](O)C(C)C)[C@@H](C)O)CSSC[C@@H](C(=O)N[C@H](C(=O)N[C@@H](C)C(=O)N[C@H](CO)[C@@H](C)O)C(C)(C)C)NC(=O)[C@H](Cc3c[nH]c4ccccc34)NC2=O)[C@@H](C)O)CCNC(=O)[C@H]([C@@H](C)O)NC(=O)[C@H](CCN)NC(=O)[C@H](CCN)NC1=O [Ex. 214] (I: H-[Hiv]TYCG[dDab][dE]WC[Tle]A[Thr(ol)] / II: [Dab]T[Dap][Dab][Dab][dL]L[Dab][Dab]T; disulfide I:4-I:9; amide I:7-II:N; lactam II:4-II:C),0.5 µg/mL,0.125 µg/mL,8 µg/mL,0.5 µg/mL,0.0625 µg/mL,0.5 µg/mL,0.25 µg/mL,0.5 µg/mL,–,–,–,–,<1%
CC(C)C[C@@H]1NC(=O)[C@@H](CC(C)C)NC(=O)[C@H](CCN)NC(=O)[C@@H](NC(=O)[C@H](CCN)NC(=O)[C@@H](NC(=O)[C@H](CCN)NC(=O)CC[C@@H]2NC(=O)[C@H](CCC(=O)O)NC(=O)[C@H](Cc3ccc(O)cc3)NC(=O)[C@@H](NC(=O)[C@@H](O)C(C)C)CSSC[C@@H](C(=O)N[C@H](CO)[C@@H](C)O)NC(=O)[C@H](C(C)(C)C)NC(=O)[C@H](CN)NC(=O)[C@H](Cc3c[nH]c4ccccc34)NC(=O)[C@H]([C@@H](C)O)NC(=O)[C@@H](CCN)NC2=O)[C@@H](C)O)CCNC(=O)[C@H]([C@@H](C)O)NC(=O)[C@H](CCN)NC(=O)[C@H](CCN)NC1=O [Ex. 91] (I: H-[Hiv]CYEE[dDab]TW[Dap][Tle]C[Thr(ol)] / II: [Dab]T[Dab][Dab][Dab][dL]L[Dab][Dab]T; disulfide I:2-I:11; amide I:5-II:N; lactam II:4-II:C),0.5 µg/mL,0.125 µg/mL,1 µg/mL,2 µg/mL,0.0625 µg/mL,2 µg/mL,0.25 µg/mL,0.25 µg/mL,–,–,–,–,<1%
CC[C@@H]1NC(=O)[C@@H](CC(C)C)NC(=O)[C@H](CCN)NC(=O)[C@@H](NC(=O)[C@H](CN)NC(=O)[C@@H](NC(=O)[C@H](CCN)NC(=O)CC[C@@H]2NC(=O)[C@H](CO)NC(=O)[C@H](Cc3ccc(O)cc3)NC(=O)[C@@H](NC(=O)[C@@H](NC(C)=O)C(C)C)CSSC[C@@H](C(=O)N[C@H](C(N)=O)[C@@H](C)O)NC(=O)[C@H](C(C)(C)C)NC(=O)[C@H](CO)NC(=O)[C@H](Cc3c[nH]c4ccccc34)NC(=O)[C@H](CCN)NC(=O)[C@@H](CCN)NC2=O)[C@@H](C)O)CCNC(=O)[C@H]([C@@H](C)O)NC(=O)[C@H](CCN)NC(=O)[C@H](CCN)NC1=O [Ex. 256] (I: Ac-VCYSE[dDab][Dab]WS[Tle]CT-NH2 / II: [Dab]T[Dap][Dab][Dab][dL][Abu][Dab][Dab]T; disulfide I:2-I:11; amide I:5-II:N; lactam II:4-II:C),0.03125 µg/mL,0.03125 µg/mL,0.0625 µg/mL,0.0625 µg/mL,0.03125 µg/mL,0.0625 µg/mL,0.03125 µg/mL,0.0625 µg/mL,–,–,–,–,1%
"CC(=O)N[C@H](C(=O)N[C@H]1CCNC(=O)CC[C@@H](C(=O)N[C@@H](CO)C(N)=O)NC(=O)[C@H](C(C)C)NC(=O)[C@H](CO)NC(=O)[C@H](Cc2c[nH]c3ccccc23)NC(=O)CNC(=O)[C@@H](CCN)NC(=O)[C@H](CCC(=O)N[C@@H](CCN)C(=O)N[C@H](C(=O)N[C@@H](CN)C(=O)N[C@H]2CCNC(=O)[C@H]([C@@H](C)O)NC(=O)[C@H](CCN)NC(=O)[C@H](CCN)NC(=O)[C@H](CC(C)C)NC(=O)[C@@H](CC(C)C)NC(=O)[C@H](CCN)NC2=O)[C@@H](C)O)NC(=O)[C@H](CCN)NC(=O)[C@H](Cc2ccc(O)cc2)NC1=O)C(C)C [Ex. 349] (I: Ac-V[Dab]Y[Dab]E[dDab]GWSVES-NH2 / II: [Dab]T[Dap][Dab][Dab][dL]L[Dab][Dab]T; lactam I:2-I:11, II:4-II:C; amide I:5-II:N)",0.25 µg/mL,–,0.25 µg/mL,0.25 µg/mL,–,0.25 µg/mL,–,–,0.0625 µg/mL,0.0625 µg/mL,0.125 µg/mL,0.125 µg/mL,<1%
"CC(=O)N[C@H](C(=O)N[C@H]1CCNC(=O)CC[C@@H](C(=O)N[C@@H](CO)C(N)=O)NC(=O)[C@H](C(C)(C)C)NC(=O)[C@H](CO)NC(=O)[C@H](Cc2c[nH]c3ccccc23)NC(=O)[C@H](CO)NC(=O)[C@@H](CCN)NC(=O)[C@H](CCC(=O)N[C@@H](CCN)C(=O)N[C@H](C(=O)N[C@@H](CN)C(=O)N[C@H]2CCNC(=O)[C@H]([C@@H](C)O)NC(=O)[C@H](CCN)NC(=O)[C@H](CCN)NC(=O)[C@H](CC(C)C)NC(=O)[C@@H](CC(C)C)NC(=O)[C@H](CCN)NC2=O)[C@@H](C)O)NC(=O)[C@H](CN)NC(=O)[C@H](Cc2ccc(O)cc2)NC1=O)C(C)C [Ex. 146] (I: Ac-V[Dab]Y[Dap]E[dDab]SWS[Tle]ES-NH2 / II: [Dab]T[Dap][Dab][Dab][dL]L[Dab][Dab]T; lactam I:2-I:11, II:4-II:C; amide I:5-II:N)",0.125 µg/mL,0.0625 µg/mL,0.25 µg/mL,0.25 µg/mL,0.0625 µg/mL,0.25 µg/mL,0.0625 µg/mL,0.125 µg/mL,–,–,–,–,<1%

# The next lines start with results.
MIC [1],MIC [2],MIC [3],MIC (Escherichia coli 926415),MIC [4],MIC [5],MIC [6],MIC [7],Acinetobacter baumannii DSM 30008 MIC [2],Escherichia coli ATCC 25922 MIC [4],Klebsiella pneumoniae SSI #3010 MIC [6],Pseudomonas aeruginosa ATCC 27853 MIC [7],Structure (SMILES),Hemolysis at 200 μg/mL [8]
0.0625 µg/mL,0.0625 µg/mL,0.125 µg/mL,0.125 µg/mL,0.0625 µg/mL,0.125 µg/mL,0.125 µg/mL,0.125 µg/mL,–,–,–,–,CC(C)C[C@@H]1NC(=O)[C@@H](CC(C)C)NC(=O)[C@H](CCN)NC(=O)[C@@H](NC(=O)[C@H](CCN)NC(=O)[C@@H](NC(=O)[C@H](CCN)NC(=O)CC[C@@H]2NC(=O)[C@H](CCN)NC(=O)[C@H](Cc3ccc(O)cc3)NC(=O)[C@@H](NC(=O)[C@@H](O)C(C)C)CSSC[C@@H](C(=O)N[C@H](CO)[C@@H](C)O)NC(=O)[C@H](C(C)(C)C)NC(=O)[C@H](CO)NC(=O)[C@H](Cc3c[nH]c4ccccc34)NC(=O)[C@H](CCO)NC(=O)[C@@H](CCCNC(=N)N)NC2=O)[C@@H](C)O)CCNC(=O)[C@H]([C@@H](C)O)NC(=O)[C@H](CCN)NC(=O)[C@H](CCN)NC1=O [Ex. 75] (I: H-[Hiv]CY[Dab]E[dR][hSer]WS[Tle]C[Thr(ol)] / II: [Dab]T[Dab][Dab][Dab][dL]L[Dab][Dab]T; disulfide I:2-I:11; amide I:5-II:N; lactam II:4-II:C),<1%
4 µg/mL,–,8 µg/mL,0.25 µg/mL,–,0.5 µg/mL,–,–,1 µg/mL,0.125 µg/mL,0.125 µg/mL,0.25 µg/mL,CC(=O)N[C@@H](CC(C)C)C(=O)N[C@H]1CSSC[C@@H](C(=O)N[C@@H](CO)C(N)=O)NC(=O)[C@H](C(C)(C)C)NC(=O)[C@H](CCN)NC(=O)[C@H](Cc2c[nH]c3ccccc23)NC(=O)[C@H](CCN)NC(=O)[C@@H](CCN)NC(=O)[C@H](CCC(=O)N[C@@H](CCN)C(=O)N[C@H](C(=O)N[C@@H](CCN)C(=O)N[C@H]2CCNC(=O)[C@H]([C@@H](C)O)NC(=O)[C@H](CCN)NC(=O)[C@H](CCN)NC(=O)[C@H](CC(C)C)NC(=O)[C@@H](CC(C)C)NC(=O)[C@H](CCN)NC2=O)[C@@H](C)O)NC(=O)[C@H](CCN)NC(=O)[C@H](Cc2ccc(O)cc2)NC1=O [Ex. 352] (I: Ac-LCY[Dab]E[dDab][Dab]W[Dab][Tle]CS-NH2 / II: [Dab]T[Dab][Dab][Dab][dL]L[Dab][Dab]T; disulfide I:2-I:11; amide I:5-II:N; lactam II:4-II:C),<1%
